# Measured values taken from publication PMC11240878, “Synthesis, enzyme inhibition assay, and molecular modeling study of novel pyrazolines linked to 4-methylsulfonylphenyl scaffold: antitumor activity and cell cycle analysis” (RSC Advances, 2024).
# How the values were obtained:
# [1] = system: 59 cancer cell lines; test: NCI 59 cancer cell line panel, single dose; format: cell-based, human; settings: 10 μM single dose; for MG% (mean growth percent): 59 cell lines
# [2] = system: HL-60(TB); test: NCI single-dose GI%, leukemia; format: cell-based, human; settings: 10.0 μM in one dose
# [3] = system: K-562; test: NCI single-dose GI%, leukemia; format: cell-based, human; settings: K-562, leukemia; 10.0 μM in one dose
# [4] = system: MOLT-4; test: NCI single-dose GI%, leukemia; format: cell-based, human; settings: MOLT-4, leukemia; 10.0 μM in one dose
# [5] = system: A549/ATCC; test: NCI single-dose GI%, NSC lung; format: cell-based, human; settings: 10.0 μM in one dose
# [6] = system: HOP-62; test: NCI single-dose GI%, NSC lung; format: cell-based, human; settings: HOP-62, NSC lung; 10.0 μM in one dose
# [7] = system: NCI-H226; test: NCI single-dose GI%, NSC lung; format: cell-based, human; settings: 10.0 μM in one dose
# [8] = system: NCI-H522; test: NCI single-dose GI%, NSC lung; format: cell-based, human; settings: 10.0 μM in one dose
# [9] = system: COLO 205; test: NCI single-dose GI%, colon; format: cell-based, human; settings: COLO 205, colon; 10.0 μM in one dose
# [10] = system: HCT-116; test: NCI single-dose GI%, colon; format: cell-based, human; settings: HCT-116, colon; 10.0 μM in one dose
# [11] = system: HCT-15; test: NCI single-dose GI%, colon; format: cell-based, human; settings: HCT-15, colon; 10.0 μM in one dose
# [12] = system: SNB-75; test: NCI single-dose GI%, CNS; format: cell-based, human; settings: SNB-75, CNS; 10.0 μM in one dose
# [13] = system: SK-OV-3; test: NCI single-dose GI%, ovarian; format: cell-based, human; settings: SK-OV-3, ovarian; 10.0 μM in one dose
# [14] = system: A498; test: NCI single-dose GI%, renal; format: cell-based, human; settings: 10.0 μM in one dose
# [15] = system: UO-31; test: NCI single-dose GI%, renal; format: cell-based, human; settings: UO-31, renal; 10.0 μM in one dose
# [16] = system: PC-3; test: NCI single-dose GI%, prostate; format: cell-based, human; settings: PC-3, prostate; 10.0 μM in one dose
# [17] = system: MCF7; test: NCI single-dose GI%, breast; format: cell-based, human; settings: 10.0 μM in one dose
# [18] = system: BT-549; test: NCI single-dose GI%, breast; format: cell-based, human; settings: BT-549, breast; 10.0 μM in one dose
# [19] = system: T-47D; test: NCI single-dose GI%, breast; format: cell-based, human; settings: 10.0 μM in one dose
# [20] = system: EKVX; test: NCI single-dose GI%, NSC lung; format: cell-based, human; settings: 10.0 μM in one dose
# [21] = system: NCI-H322M; test: NCI single-dose GI%, NSC lung; format: cell-based, human; settings: 10.0 μM in one dose
# [22] = system: HT29; test: NCI single-dose GI%, colon; format: cell-based, human; settings: 10.0 μM in one dose
# [23] = system: U251; test: NCI single-dose GI%, CNS; format: cell-based, human; settings: 10.0 μM in one dose
# [24] = system: UACC-257; test: NCI single-dose GI%, melanoma; format: cell-based, human; settings: UACC-257, melanoma; 10.0 μM in one dose
# [25] = system: OVCAR-8; test: NCI single-dose GI%, ovarian; format: cell-based, human; settings: OVCAR-8, ovarian; 10.0 μM in one dose
# [26] = system: CAKI-1; test: NCI single-dose GI%, renal; format: cell-based, human; settings: CAKI-1, renal; 10.0 μM in one dose
# [27] = system: TK-10; test: NCI single-dose GI%, renal; format: cell-based, human; settings: TK-10, renal; 10.0 μM in one dose
# [28] = system: SR; test: NCI single-dose GI%, leukemia; format: cell-based, human; settings: 10.0 μM in one dose
# [29] = system: MALME-3M; test: NCI single-dose GI%, melanoma; format: cell-based, human; settings: 10.0 μM in one dose
# [30] = system: RPMI-8226; test: NCI single-dose GI%, leukemia; format: cell-based, human; settings: RPMI-8226, leukemia; 10.0 μM in one dose
# [31] = system: SK-MEL-2; test: NCI single-dose GI%, melanoma; format: cell-based, human; settings: SK-MEL-2, melanoma; 10.0 μM in one dose
# [32] = system: UACC-62; test: NCI single-dose GI%, melanoma; format: cell-based, human; settings: UACC-62, melanoma; 10.0 μM in one dose
# [33] = system: MDA-MB-468; test: NCI single-dose GI%, breast; format: cell-based, human; settings: MDA-MB-468, breast; 10.0 μM in one dose
# [34] = system: HL-60 cells; test: Cell cycle analysis by flow cytometry; format: cell-based, human; settings: at IC50 concentration
# Description: Flow cytometry measures cell growth in different cell cycle phases (G0–G1, S, G2/M and pre-G1).[33,77] This study aimed to find out how the target compounds affect the growth of cancer cells by examining at how they change the cell cycle and cause apoptosis in HL-60 cells.
# The cell cycle analysis was conducted similarly to our prior study, using the leukemia HL-60 cell line. The cells were stained with the DNA fluorochrome PI and analyzed using a FACSCalibur flow cytometer.[33,77]
# [35] = system: KM12; test: NCI single-dose GI%, colon; format: cell-based, human; settings: 10.0 μM in one dose
# [36] = system: SK-MEL-5; test: NCI single-dose GI%, melanoma; format: cell-based, human; settings: SK-MEL-5, melanoma; 10.0 μM in one dose
# [37] = system: OVCAR-4; test: NCI single-dose GI%, ovarian; format: cell-based, human; settings: OVCAR-4, ovarian; 10.0 μM in one dose
# [38] = system: MDA-MB-231/ATCC; test: NCI single-dose GI%, breast; format: cell-based, human; settings: 10.0 μM in one dose
# [39] = system: SF-268; test: NCI single-dose GI%, CNS; format: cell-based, human; settings: SF-268, CNS; 10.0 μM in one dose
Compound,melting point [°C],PCE (positive cytotoxic effect: ratio of cell lines with growth inhibition >10% to total cell lines) [1],MG% (mean growth percent) [1] [%],GI% [2] [%],GI% [3] [%],GI% [4] [%],GI% [5] [%],GI% [6] [%],GI% [7] [%],GI% [8] [%],GI% [10] [%],GI% [12] [%],GI% [13] [%],GI% [15] [%],GI% [16] [%],GI% [17] [%],GI% [19] [%],GI% [20] [%],GI% [26] [%],GI% [33] [%],further results
"CS(=O)(=O)c1ccc(C(=O)N2N=C(c3ccccc3)CC2c2ccc3c(c2)OCO3)cc1 (stereo not shown) [Compound 18m, (5-(Benzo[d][1,3]dioxol-5-yl)-3-phenyl-4,5-dihydro-1H-pyrazol-1-yl)(4-(methylsulfonyl)phenyl)methanone]",155 to 157,18/59,91.96,63,40,48,20,17,11,13,18,12,16,34,15,16,22,–,–,–,GI% [9]: 19%; GI% [11]: 14%; GI% [14]: 14%; GI% [18]: 14%
"CS(=O)(=O)c1ccc(C(=O)N2N=C(c3ccc(F)cc3)CC2c2ccccc2)cc1 (stereo not shown) [Compound 18d, (3-(4-Fluorophenyl)-5-phenyl-4,5-dihydro-1H-pyrazol-1-yl)(4-(methylsulfonyl)phenyl)methanone]",311 to 313,18/59,93.02,57,32,37,24,29,–,43,–,–,13,27,–,–,17,16,14,–,GI% [21]: 14%; GI% [22]: 14%; GI% [23]: 17%; GI% [24]: 37%; GI% [25]: 15%; GI% [27]: 12%; GI% [18]: 15%
"CS(=O)(=O)c1ccc(C(=O)N2N=C(c3ccccc3)CC2c2ccccc2)cc1 (stereo not shown) [Compound 18a, (3,5-Diphenyl-4,5-dihydro-1H-pyrazol-1-yl)(4-(methylsulfonyl)phenyl)methanone]",259 to 261,11/59,98.11,32,19,32,18,–,11,18,–,–,–,12,–,–,–,11,–,–,GI% [28]: 13%; GI% [29]: 11%; GI% [24]: 14%
"Cc1ccc(C2CC(c3ccccc3)=NN2C(=O)c2ccc(S(C)(=O)=O)cc2)cc1 (stereo not shown) [Compound 18f, (4-(Methylsulfonyl)phenyl)(3-phenyl-5-(4-tolyl)-4,5-dihydro-1H-pyrazol-1-yl)methanone]",225 to 227,21/59,93.80,14,–,30,16,12,17,37,20,20,–,24,28,11,16,13,16,15,GI% [30]: 18%; GI% [22]: 12%; GI% [23]: 11%; GI% [31]: 11%; GI% [24]: 26%; GI% [32]: 12%; phase of cell cycle arrest [34]: S/G2 phase

# The next lines start with results.
melting point [°C],Compound,PCE (positive cytotoxic effect: ratio of cell lines with growth inhibition >10% to total cell lines) [1],MG% (mean growth percent) [1] [%],GI% [2] [%],GI% [3] [%],GI% [4] [%],GI% [5] [%],GI% [6] [%],GI% [7] [%],GI% [8] [%],GI% [10] [%],GI% [12] [%],GI% [13] [%],GI% [15] [%],GI% [16] [%],GI% [17] [%],GI% [19] [%],GI% [20] [%],GI% [26] [%],GI% [33] [%],further results
216 to 218,"COc1ccc(C2=NN(C(=O)c3ccc(S(C)(=O)=O)cc3)C(c3ccccc3)C2)c(OC)c1 (stereo not shown) [Compound 18n, (3-(2,4-Dimethoxyphenyl)-5-phenyl-4,5-dihydro-1H-pyrazol-1-yl)(4-(methylsulfonyl)phenyl)methanone]",20/59,93.24,55,26,38,–,20,14,20,18,15,–,24,15,65,14,28,15,36,GI% [35]: 12%; GI% [31]: 18%; GI% [36]: 21%; GI% [37]: 12%; GI% [38]: 12%
150 to 152,"COc1ccc(C2=NN(C(=O)c3ccc(S(C)(=O)=O)cc3)C(c3cc(OC)c(OC)c(OC)c3)C2)cc1OC (stereo not shown) [Compound 18q, (3-(3,4-Dimethoxyphenyl)-5-(3,4,5-trimethoxyphenyl)-4,5-dihydro-1H-pyrazol-1-yl)(4-(methylsulfonyl)phenyl)methanone]",6/59,97.51,–,–,–,–,–,–,–,–,13,–,24,–,12,–,–,13,12,GI% [14]: 13%
169 to 171,"COc1ccc(C2=NN(C(=O)c3ccc(S(C)(=O)=O)cc3)C(c3ccc(OC)c(OC)c3)C2)c(OC)c1 (stereo not shown) [Compound 18p, (3-(2,4-Dimethoxyphenyl)-5-(3,4-dimethoxyphenyl)-4,5-dihydro-1H-pyrazol-1-yl)(4-(methylsulfonyl)phenyl)methanone]",11/59,97.33,31,23,–,–,26,15,13,17,–,16,25,–,–,25,–,–,13,GI% [39]: 11%
